# Measurements: PMC8042122 (Scientific Reports, 2021)
# System: F. graminearum CBS185.32 strain
# Assay type: cell-based, Fusarium graminearum
# Conditions: for Impact of methyl caps on the activity of TC3 (ability to inhibit TCTB production): 50 µM
Substance,Impact of methyl caps on the activity of TC3 (ability to inhibit TCTB production),Inhibitory activity on TCTB production
"CGNFLKRTC(CH3)ICVKK (disulfide) [TC3-CH3-2Ox, TC3-CH3-2 oxidized, cyclized through the non-capped Cys]",most negative impact,
"CGNFLKRTCIC(CH3)VKK (disulfide) [TC3-CH3-3Ox, TC3-CH3-3 oxidized, cyclized through the non-capped Cys]",most negative impact,
"CGNFLTRTCICVKK [TC3-K6T, TC3 with Lys6 substituted by Thr]",,lowest inhibitory activity
